Columns and labels:
[1] = compound: O=[As]([O-])(O)O.[K+] [potassium arsenate]; assay: thermal stability z-score vs DMSO; higher = more thermally stabilized by treatment; conditions: HeLa; arsenate concentration 1 mM
Description: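 Cellular thermal proteome profiling in HeLa cells treated with 1 mM arsenate for 1 h (DMSO pretreatment), heated to ten temperatures (37-66.3 °C). Soluble protein was quantified by TMT mass spectrometry relative to DMSO controls; the thermal stability score was transformed to a z-score; mean of n = 3 experiments.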

[2] = compound: NC(=O)CCCCC1CCSS1 [lipoamide]; assay: as above; conditions: HeLa, lipoamide concentration 100 µM
Description: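 Cellular thermal proteome profiling in HeLa cells. Cells were treated with 100 µM lipoamide for 1 h, with or without 1 mM arsenate for a further 1 h, then heated to ten temperatures (37-66.3 °C), and soluble protein was quantified by TMT mass spectrometry relative to 0.1% DMSO controls. The thermal stability score (sum of log2 fold changes minus the abundance score) was transformed to a z-score; mean of n = 3 experiments.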

[3] = arsenate co-treatment: 1 mM arsenate 1 h
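Note: each temperature applied for 3 min, abundance score taken as mean log2 fold change at the two lowest temperatures, z-score obtained by mean subtraction and division by SD.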

Chain of UniProt P25325 (P25325 whole entry): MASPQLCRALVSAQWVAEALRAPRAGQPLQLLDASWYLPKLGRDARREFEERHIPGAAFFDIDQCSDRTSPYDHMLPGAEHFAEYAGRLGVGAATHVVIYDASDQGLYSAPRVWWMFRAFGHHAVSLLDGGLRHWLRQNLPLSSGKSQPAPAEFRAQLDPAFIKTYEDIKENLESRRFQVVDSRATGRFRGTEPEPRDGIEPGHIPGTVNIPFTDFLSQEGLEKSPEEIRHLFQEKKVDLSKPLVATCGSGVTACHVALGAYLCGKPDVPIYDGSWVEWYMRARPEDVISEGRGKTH
Chain of UniProt Q9BV20 (Q9BV20 whole entry): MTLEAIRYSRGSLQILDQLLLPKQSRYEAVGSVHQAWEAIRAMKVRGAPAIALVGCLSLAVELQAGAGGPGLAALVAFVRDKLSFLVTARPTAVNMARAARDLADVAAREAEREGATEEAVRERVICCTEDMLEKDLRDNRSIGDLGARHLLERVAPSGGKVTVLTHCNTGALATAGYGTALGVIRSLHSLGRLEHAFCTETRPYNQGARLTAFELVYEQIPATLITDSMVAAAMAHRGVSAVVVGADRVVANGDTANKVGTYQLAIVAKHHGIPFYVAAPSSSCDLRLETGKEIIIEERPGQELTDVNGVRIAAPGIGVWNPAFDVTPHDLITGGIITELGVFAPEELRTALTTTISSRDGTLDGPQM
Chain of UniProt Q9Y605 (Q9Y605 whole entry): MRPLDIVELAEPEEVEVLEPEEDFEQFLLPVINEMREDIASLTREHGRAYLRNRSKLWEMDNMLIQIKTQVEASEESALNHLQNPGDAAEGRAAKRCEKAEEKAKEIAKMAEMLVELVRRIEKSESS
Chain of UniProt Q00013 (Q00013 whole entry): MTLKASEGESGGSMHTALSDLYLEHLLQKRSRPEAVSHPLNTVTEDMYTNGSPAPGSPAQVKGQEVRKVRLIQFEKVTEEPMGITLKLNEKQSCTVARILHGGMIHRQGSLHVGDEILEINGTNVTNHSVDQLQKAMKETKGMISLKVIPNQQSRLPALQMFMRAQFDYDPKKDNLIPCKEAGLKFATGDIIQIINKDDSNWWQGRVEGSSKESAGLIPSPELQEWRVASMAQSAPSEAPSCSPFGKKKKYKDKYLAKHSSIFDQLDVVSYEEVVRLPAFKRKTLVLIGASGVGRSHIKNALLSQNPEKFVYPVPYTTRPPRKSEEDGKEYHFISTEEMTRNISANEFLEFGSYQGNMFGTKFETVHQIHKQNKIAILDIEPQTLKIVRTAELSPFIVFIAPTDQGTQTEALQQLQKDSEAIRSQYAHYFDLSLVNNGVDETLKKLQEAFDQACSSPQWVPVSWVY
Chain of UniProt O95297 (O95297 whole entry): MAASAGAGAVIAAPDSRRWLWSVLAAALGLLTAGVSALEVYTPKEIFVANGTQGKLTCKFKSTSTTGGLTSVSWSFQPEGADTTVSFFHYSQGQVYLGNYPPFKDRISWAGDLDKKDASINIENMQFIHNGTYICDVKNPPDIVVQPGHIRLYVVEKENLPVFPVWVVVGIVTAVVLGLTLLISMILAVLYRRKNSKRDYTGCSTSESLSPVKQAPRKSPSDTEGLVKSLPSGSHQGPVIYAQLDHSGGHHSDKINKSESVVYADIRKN
Chain of UniProt O00566 (O00566 whole entry): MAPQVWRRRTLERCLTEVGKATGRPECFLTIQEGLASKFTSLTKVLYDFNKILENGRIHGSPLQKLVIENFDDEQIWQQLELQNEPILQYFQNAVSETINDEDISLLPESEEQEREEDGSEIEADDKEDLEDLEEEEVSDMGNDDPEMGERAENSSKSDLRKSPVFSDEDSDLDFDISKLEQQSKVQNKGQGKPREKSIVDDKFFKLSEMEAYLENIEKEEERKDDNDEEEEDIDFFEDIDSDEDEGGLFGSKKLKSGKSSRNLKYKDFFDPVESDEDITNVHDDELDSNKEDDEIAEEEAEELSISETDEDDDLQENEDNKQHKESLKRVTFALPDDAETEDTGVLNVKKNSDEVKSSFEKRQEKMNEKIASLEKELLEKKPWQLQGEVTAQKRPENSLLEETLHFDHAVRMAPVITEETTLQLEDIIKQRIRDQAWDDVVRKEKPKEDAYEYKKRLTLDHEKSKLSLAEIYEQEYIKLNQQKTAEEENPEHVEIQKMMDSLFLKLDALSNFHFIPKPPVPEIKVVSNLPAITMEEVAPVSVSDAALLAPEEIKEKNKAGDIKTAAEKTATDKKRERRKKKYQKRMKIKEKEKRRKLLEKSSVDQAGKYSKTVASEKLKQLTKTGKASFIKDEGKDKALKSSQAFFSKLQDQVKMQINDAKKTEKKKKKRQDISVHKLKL
Chain of UniProt Q6IN84 (Q6IN84 whole entry): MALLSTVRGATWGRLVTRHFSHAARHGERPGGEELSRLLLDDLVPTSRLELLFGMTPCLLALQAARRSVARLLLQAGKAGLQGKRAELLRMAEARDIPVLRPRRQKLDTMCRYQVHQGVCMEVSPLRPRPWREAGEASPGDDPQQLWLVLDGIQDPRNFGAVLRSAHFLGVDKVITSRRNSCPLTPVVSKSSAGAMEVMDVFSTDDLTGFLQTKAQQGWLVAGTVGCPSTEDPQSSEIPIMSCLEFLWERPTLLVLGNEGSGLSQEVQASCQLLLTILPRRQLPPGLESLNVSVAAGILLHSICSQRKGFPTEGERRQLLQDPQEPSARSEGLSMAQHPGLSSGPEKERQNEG
Chain of UniProt Q9NV56 (Q9NV56 whole entry): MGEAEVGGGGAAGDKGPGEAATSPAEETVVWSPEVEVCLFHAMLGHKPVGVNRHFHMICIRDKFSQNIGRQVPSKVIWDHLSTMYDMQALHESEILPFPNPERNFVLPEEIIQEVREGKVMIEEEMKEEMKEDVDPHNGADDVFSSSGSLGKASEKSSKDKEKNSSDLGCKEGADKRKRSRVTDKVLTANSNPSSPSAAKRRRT
Chain of UniProt Q6WCQ1 (Q6WCQ1 whole entry): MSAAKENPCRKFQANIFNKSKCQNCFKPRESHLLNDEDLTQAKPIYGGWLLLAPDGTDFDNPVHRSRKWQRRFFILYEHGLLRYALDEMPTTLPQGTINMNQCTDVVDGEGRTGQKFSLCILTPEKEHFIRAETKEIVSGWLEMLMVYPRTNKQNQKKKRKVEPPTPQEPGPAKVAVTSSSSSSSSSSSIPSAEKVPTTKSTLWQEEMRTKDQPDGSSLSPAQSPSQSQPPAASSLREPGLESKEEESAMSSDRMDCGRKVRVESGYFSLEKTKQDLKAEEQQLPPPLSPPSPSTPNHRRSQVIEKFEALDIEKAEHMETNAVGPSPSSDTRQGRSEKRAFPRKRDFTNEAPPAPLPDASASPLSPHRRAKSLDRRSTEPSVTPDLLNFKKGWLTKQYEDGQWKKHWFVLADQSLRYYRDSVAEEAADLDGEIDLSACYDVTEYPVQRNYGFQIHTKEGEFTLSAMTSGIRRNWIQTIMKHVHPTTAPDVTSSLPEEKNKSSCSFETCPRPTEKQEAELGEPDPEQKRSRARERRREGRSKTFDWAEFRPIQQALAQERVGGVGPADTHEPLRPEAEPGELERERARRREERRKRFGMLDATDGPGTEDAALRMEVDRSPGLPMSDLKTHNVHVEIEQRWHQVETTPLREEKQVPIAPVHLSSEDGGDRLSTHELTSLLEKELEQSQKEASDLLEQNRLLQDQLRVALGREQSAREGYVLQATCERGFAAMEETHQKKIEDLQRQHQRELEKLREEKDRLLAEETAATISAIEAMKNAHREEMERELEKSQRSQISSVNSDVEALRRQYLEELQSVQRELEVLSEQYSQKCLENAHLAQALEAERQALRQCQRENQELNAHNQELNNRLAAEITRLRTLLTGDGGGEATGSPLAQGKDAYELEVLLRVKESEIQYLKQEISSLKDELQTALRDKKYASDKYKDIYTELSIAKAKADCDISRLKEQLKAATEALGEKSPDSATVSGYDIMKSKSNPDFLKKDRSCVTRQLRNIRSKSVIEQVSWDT
Chain of UniProt Q5T2T1 (Q5T2T1 whole entry): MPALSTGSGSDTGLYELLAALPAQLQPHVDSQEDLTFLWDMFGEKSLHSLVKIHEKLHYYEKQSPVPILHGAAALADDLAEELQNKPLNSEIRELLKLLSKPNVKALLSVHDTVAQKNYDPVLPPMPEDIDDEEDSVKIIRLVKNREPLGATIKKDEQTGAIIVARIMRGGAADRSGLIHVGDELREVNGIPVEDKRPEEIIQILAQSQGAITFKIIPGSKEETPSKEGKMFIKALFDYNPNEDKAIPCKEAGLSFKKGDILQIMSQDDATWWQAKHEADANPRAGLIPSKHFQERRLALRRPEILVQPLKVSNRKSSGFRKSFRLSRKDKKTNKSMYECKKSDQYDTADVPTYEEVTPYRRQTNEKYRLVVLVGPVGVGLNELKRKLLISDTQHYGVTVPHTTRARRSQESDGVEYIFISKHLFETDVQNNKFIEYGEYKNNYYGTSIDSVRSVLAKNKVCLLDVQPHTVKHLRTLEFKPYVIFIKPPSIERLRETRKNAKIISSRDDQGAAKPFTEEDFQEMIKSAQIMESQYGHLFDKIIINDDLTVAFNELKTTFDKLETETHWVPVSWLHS
Chain of UniProt O60487 (O60487 whole entry): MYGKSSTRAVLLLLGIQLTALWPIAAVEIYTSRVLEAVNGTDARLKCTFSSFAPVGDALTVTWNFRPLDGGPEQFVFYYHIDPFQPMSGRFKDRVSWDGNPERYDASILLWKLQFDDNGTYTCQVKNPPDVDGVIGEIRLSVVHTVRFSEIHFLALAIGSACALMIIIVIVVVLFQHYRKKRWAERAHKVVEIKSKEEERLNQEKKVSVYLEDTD
Chain of UniProt O14807 (O14807 whole entry): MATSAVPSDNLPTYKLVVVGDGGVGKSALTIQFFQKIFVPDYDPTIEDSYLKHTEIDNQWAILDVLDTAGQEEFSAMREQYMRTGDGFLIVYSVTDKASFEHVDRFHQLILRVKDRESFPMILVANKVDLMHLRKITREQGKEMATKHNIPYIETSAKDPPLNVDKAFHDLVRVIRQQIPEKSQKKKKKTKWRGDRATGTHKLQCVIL

| Target | thermal stability z-score [1] | thermal stability z-score [2, 3] | thermal stability z-score ([2]; arsenate co-treatment: none) |
| --- | --- | --- | --- |
| MPHOSPH6 (UniProt Q99547) | -2.13 | 0.29 | -0.917 |
| MPHOSPH10 (UniProt O00566) | 0.849 | 0.544 | 0.827 |
| MPI (UniProt P34949) | 0.187 | -0.333 | -0.379 |
| MPP1 (UniProt Q00013) | -0.163 | -0.0663 | -0.0569 |
| MPP5 (UniProt Q8N3R9) | -0.004 | -0.0805 | -0.0555 |
| MPP6 | -0.29 | -0.288 | -0.0854 |
| MPP7 (UniProt Q5T2T1) | -0.0635 | -0.0378 | -0.274 |
| MPRIP (UniProt Q6WCQ1) | 0.452 | 0.435 | 0.401 |
| MPST (UniProt P25325) | -0.099 | 0.689 | 0.913 |
| MPZL1 (UniProt O95297) | 0.179 | 0.0579 | 0.206 |
| MPZL2 (UniProt O60487) | -0.0559 | 0.503 | -0.0637 |
| MRAS (UniProt O14807) | 0.0682 | 0.488 | -0.67 |
| MRE11A (UniProt P49959) | -0.619 | 0.729 | 0.164 |
| MRFAP1 (UniProt Q9Y605) | -0.23 | 0.86 | -0.215 |
| MRGBP (UniProt Q9NV56) | -0.45 | 0.386 | -0.212 |
| MRI1 (UniProt Q9BV20) | -0.37 | 0.156 | 0.0639 |
| MRM1 (UniProt Q6IN84) | -0.991 | -0.994 | -0.349 |
| MRM3 (UniProt Q9HC36) | -0.218 | -0.128 | -0.165 |

| Target | thermal stability z-score [1] | thermal stability z-score [2, 3] | thermal stability z-score ([2]; arsenate co-treatment: none) |
| --- | --- | --- | --- |
| MRPL1 (UniProt Q9BYD6) | 0.374 | -0.253 | -0.245 |
| MRPL2 (UniProt Q5T653) | 0.601 | 0.745 | 0.173 |
| MRPL3 (UniProt P09001) | -0.132 | -0.851 | -0.0275 |
| MRPL4 (UniProt Q9BYD3) | -0.138 | -0.319 | -0.59 |
| MRPL9 (UniProt Q9BYD2) | 0.232 | -0.106 | 0.203 |
| MRPL10 (UniProt Q7Z7H8) | 0.0461 | 0.127 | 0.224 |
| MRPL11 (UniProt Q9Y3B7) | 0.0228 | -0.211 | 0.169 |
| MRPL13 (UniProt Q9BYD1) | -0.201 | -0.175 | -0.451 |
| MRPL14 (UniProt Q6P1L8) | 1.59 | -0.566 | 0.0684 |
| MRPL15 (UniProt Q9P015) | -0.33 | -0.144 | -0.0219 |
| MRPL16 (UniProt Q9NX20) | -0.974 | -0.269 | -0.373 |
| MRPL17 (UniProt Q9NRX2) | -0.206 | 0.0551 | 0.00699 |
| MRPL18 (UniProt Q9H0U6) | -0.799 | -0.339 | -0.0505 |
| MRPL19 (UniProt P49406) | 0.274 | -0.287 | -0.00717 |
| MRPL20 (UniProt Q9BYC9) | -0.00694 | 0.411 | 0.239 |
| MRPL21 (UniProt Q7Z2W9) | 0.0405 | -0.754 | -0.591 |
| MRPL22 (UniProt Q9NWU5) | 0.467 | 0.32 | 0.464 |

Reference: the supplement of paper PMC12463676, “Small-molecule dissolution of stress granules by redox modulation benefits ALS models” (Nature Chemical Biology, 2025)
